This note sets out measurements from ChEMBL document CHEMBL3351337, “Cytotoxic 1,5-diaryl-3-oxo-1,5-pentadienes: an assessment and comparison of membrane permeability using Caco-2 and MDCK monolayers” (Bioorg Med Chem Lett, 2014).

One series relates to Caco-2. The experiment in a line: Increase in permeability of lucifer yellow dye across human Caco2 cells. It counts as functional, cell-based.
In series [1] the test system is MDCK. As to the kind of experiment: Increase in permeability of lucifer yellow dye across MDCK cells. The settings on record: Canis lupus familiaris. It counts as functional, cell-based.
For series [2], the system named is MDCK. As to the kind of experiment: Cytotoxicity against MDCK cells assessed as reduction in cell viability. In kind it is cell-based, Canis lupus familiaris. To be noted: dog. Also noted: concentration or dose not given beside the values.
Series [3] can be described thus: Cytotoxicity against human Caco2 cells assessed as reduction in cell viability. In kind it is cell-based. To be noted: Caco-2.
Series [4] can be described thus: Apparent permeability from apical to basolateral side in human Caco2 cells at 50 uM over 2 hrs by isocratic reverse phase HPLC method. In kind it is ADME, cell-based. To be noted: Caco-2.
Series [5] can be described thus: Apparent permeability from basolateral to apical side in human Caco2 cells at 50 uM over 2 hrs by isocratic reverse phase HPLC method. In kind it is ADME, cell-based. To be noted: Caco-2.
The nature of series [6]: Permeability ratio, ratio of permeability from apical to basolateral side over basolateral to apical side in human Caco2 cells at 50 uM over 2 hrs by isocratic reverse phase HPLC method. In kind it is ADME, cell-based. The settings on record: caco-2, 2 h.
Series [7] is described as follows: Efflux ratio, ratio of permeability from basolateral to apical side over apical to basolateral side in human Caco2 cells at 50 uM over 2 hrs by isocratic reverse phase HPLC method. The settings on record: Caco-2. It counts as ADME, cell-based.
Series [8] is described as follows: Apparent permeability from apical to basolateral side in MDCK cells at 50 uM over 2 hrs by isocratic reverse phase HPLC method. To be noted: dog. In kind it is ADME, cell-based, Canis lupus familiaris.
Series [9] in a line: Apparent permeability from basolateral to apical side in MDCK cells at 50 uM over 2 hrs by isocratic reverse phase HPLC method. In kind it is ADME, cell-based, Canis lupus familiaris. The settings on record: dog.
The test system of series [10] is MDCK. The experiment in a line: Permeability ratio, ratio of permeability from apical to basolateral side over basolateral to apical side in MDCK cells at 50 uM over 2 hrs by isocratic reverse phase HPLC method. It counts as ADME, cell-based, Canis lupus familiaris. To be noted: dog.
Series [11] is described as follows: (§1) Permeability ratio, ratio of permeability from basolateral to apical side over apical to basolateral side in MDCK cells at 50 uM over 2 hrs by isocratic reverse phase HPLC method. It counts as ADME, cell-based, Canis lupus familiaris. To be noted: dog, MDCK.
The nature of series [12]: Ratio of apparent permeability from apical to basolateral side in MDCK cells to apparent permeability from apical to basolateral side in human Caco2 cells. It counts as ADME, cell-based. To be noted: caco-2.
A short description of series [13]: Ratio of apparent permeability from basolateral to apical side in MDCK cells to apparent permeability from basolateral to apical side in human Caco2 cells. In kind it is ADME, cell-based. The settings on record: caco-2.
Series [14] deals with MDCK. The description is as §1. To be noted: dog, mdck, 2 h, 50 µM. In kind it is ADME, cell-based, Canis lupus familiaris.

SMILES strings stand for the structures. Calls of active or inactive are those of the source. The rule behind the calls is not given here.

Take `CCOC(=O)c1ccc(/C=C2\CNC/C(=C\c3ccc(C(=O)OCC)cc3)C2=O)cc1`: the result in the series on Caco-2 was inactive. Also, in the series with MDCK [1], the result was Active. Besides, the Activity is 4% in the series on MDCK [2] and “Non-toxic” in series [3]. The Papp A→B at 2 h, 50 µM in series [4] came to 2.82 ×10⁻⁶ cm/s; in series [8] it was 2.7 ×10⁻⁶ cm/s. Moreover, the Papp B→A at 2 h, 50 µM in [5] and in series [9] was 0.99 ×10⁻⁶ cm/s in each case. The Ratio came out at 2.85 in [6], 2.73 in the series with MDCK [10], 0.96 in series [12] and 1 in series [13]. The figures for the efflux ratio at 2 h, 50 µM in series [7] and in series [11] were 0.35 and 0.37, respectively.

As for `COc1ccc(/C=C2\CNC/C(=C\c3ccc(OC)c(OC)c3)C2=O)cc1OC`, in the series with Caco-2, the outcome was inactive. For the same molecule, in the series with MDCK [1], the outcome was Active. Further, the Activity in the series with MDCK [2] is given as 4%; in series [3], “Non-toxic”. In addition, the results for the Papp A→B at 2 h, 50 µM in series [4] and in [8] were 14.4 ×10⁻⁶ cm/s and 22.2 ×10⁻⁶ cm/s, respectively. Moreover, the results for the Papp B→A at 2 h, 50 µM in series [5] and in [9] were 4.12 ×10⁻⁶ cm/s and 8.7 ×10⁻⁶ cm/s, respectively. Besides, the Ratio in series [6] was found to be 3.5; with MDCK [10] it was 2.55; in [12] it was 1.54; in series [13] it was 2.11. Also, the figures for the efflux ratio at 2 h, 50 µM in series [7] and in series [11] were 0.29 and 0.39, respectively.

Regarding `CCOP(=O)(OCC)N1C/C(=C\c2cc(OC)c(OC)c(OC)c2)C(=O)/C(=C/c2cc(OC)c(OC)c(OC)c2)C1`, in the series with Caco-2, the outcome was inactive. In addition, in the series on MDCK [1], the outcome was Active. Besides, the Activity in the series on MDCK [2] is recorded as 4%; in [3] it was “Non-toxic”. In addition, the Papp A→B at 2 h, 50 µM in series [4] was 28.5 ×10⁻⁶ cm/s; in series [8], 105 ×10⁻⁶ cm/s. The basolateral-to-apical permeability (Papp B→A) at 2 h, 50 µM in [5] was found to be 8.82 ×10⁻⁶ cm/s; in series [9] it was 50.3 ×10⁻⁶ cm/s. Moreover, the Ratio in series [6] came out at 3.23; in the series with MDCK [10], 2.08; in series [12] it was 3.68; in series [13] it was 5.73. The results for the efflux ratio at 2 h, 50 µM in [7] and in [11] were 0.31 and 0.48, respectively.

In the case of `O=C(/C=C/c1ccccc1)c1ccccc1` [CHALCONE], in the series with Caco-2, the result was inactive. For the same molecule, the outcome in the series with MDCK [1] was Active. Further, the Activity in the series with MDCK [2] is 4%; in [3], “Non-toxic”. The Papp A→B at 2 h, 50 µM in [4] turned out to be 2.89 ×10⁻⁶ cm/s; in series [8], 3.84 ×10⁻⁶ cm/s. For the same molecule, the Papp B→A at 2 h, 50 µM in [5] turned out to be 1.05 ×10⁻⁶ cm/s; in series [9], 1.26 ×10⁻⁶ cm/s. The Ratio in [6] was determined as 2.75; in the series with MDCK [10], 3.05; in series [12], 1.33; in [13], 1.2. The efflux ratio at 2 h, 50 µM in series [7] was 0.36; in series [11], 0.33.

Consider `CN(C)c1ccc(/C=C/C(=O)/C=C/c2ccc(N(C)C)cc2)cc1`, for which the result with Caco-2 was inactive. Also, the result with MDCK [1] was Active. Besides, the Activity in the series with MDCK [2] is listed as 4%; in [3], “Non-toxic”. Moreover, the results for the Papp A→B at 2 h, 50 µM in series [4] and in series [8] were 8.42 ×10⁻⁶ cm/s and 19.7 ×10⁻⁶ cm/s, respectively. Besides, the Papp B→A at 2 h, 50 µM is 7.02 ×10⁻⁶ cm/s in series [5] and 15.9 ×10⁻⁶ cm/s in series [9]. In addition, the Ratio came out at 1.2 in series [6]; 1.24 with MDCK [10]; 0.81 in the series with MDCK [14]; 2.34 in series [12]; 2.27 in series [13]. Also, the efflux ratio at 2 h, 50 µM in series [7] was 0.83.

As to `COc1ccccc1/C=C1\CNC/C(=C\c2ccccc2OC)C1=O`, in the series with Caco-2, the result was inactive. Moreover, in the series on MDCK [1], the outcome was Active. Besides, the results for the Activity (in the series with MDCK [2]; in [3]) were 4% and “Non-toxic”, respectively. The results for the Papp A→B at 2 h, 50 µM in series [4] and in series [8] were 32.5 ×10⁻⁶ cm/s and 28.7 ×10⁻⁶ cm/s, respectively. In addition, the Papp B→A at 2 h, 50 µM amounted to 10.4 ×10⁻⁶ cm/s in [5] and 13.9 ×10⁻⁶ cm/s in series [9]. Besides, the Ratio was 3.13 in [6], 2.06 with MDCK [10], 0.88 in [12] and 1.34 in series [13]. The efflux ratio at 2 h, 50 µM was 0.32 in [7] and 0.48 in series [11].

In the case of `CCOP(=O)(OCC)N1C/C(=C\c2ccc(OC)c(OC)c2)C(=O)/C(=C/c2ccc(OC)c(OC)c2)C1`, the outcome in the series on Caco-2 was inactive. For the same molecule, the result with MDCK [1] was Active. The Activity is given as 4% with MDCK [2] and “Non-toxic” in series [3]. Also, the results for the Papp A→B at 2 h, 50 µM in series [4] and in [8] were 54.7 ×10⁻⁶ cm/s and 62.3 ×10⁻⁶ cm/s, respectively. For the same molecule, the figures for the Papp B→A at 2 h, 50 µM in [5] and in [9] were 8.17 ×10⁻⁶ cm/s and 27.7 ×10⁻⁶ cm/s, respectively. The Ratio is on record as 6.7 in [6], 2.25 in the series on MDCK [10], 1.14 in series [12] and 3.39 in [13]. In addition, the figures for the efflux ratio at 2 h, 50 µM in series [7] and in [11] were 0.15 and 0.44, respectively.

Regarding `O=C1/C(=C/c2ccccc2F)CNC/C1=C\c1ccccc1F`, the outcome with Caco-2 was inactive. Moreover, in the series on MDCK [1], the result was Active. Also, the Activity in the series with MDCK [2] was 4%; in [3], “Non-toxic”. Besides, the Papp A→B at 2 h, 50 µM in series [4] was determined as 3.53 ×10⁻⁶ cm/s; in series [8] it was 3.54 ×10⁻⁶ cm/s. Also, the Papp B→A at 2 h, 50 µM came out at 0.6 ×10⁻⁶ cm/s in series [5] and 0.36 ×10⁻⁶ cm/s in series [9]. Further, the Ratio is 5.88 in series [6], 9.83 in the series on MDCK [10], 1 in series [12] and 0.6 in series [13]. For the same molecule, the efflux ratio at 2 h, 50 µM was found to be 0.17 in [7] and 0.1 in series [11].

For `O=C1/C(=C/c2cccc(O)c2)CNC/C1=C\c1cccc(O)c1`, the outcome with Caco-2 was inactive. Further, the outcome in the series on MDCK [1] was Active. The Activity in the series with MDCK [2] is listed as 4%; in series [3] it was “Non-toxic”. The Papp A→B at 2 h, 50 µM in series [4] amounted to 15.4 ×10⁻⁶ cm/s; in series [8], 21.9 ×10⁻⁶ cm/s. The results for the Papp B→A at 2 h, 50 µM in series [5] and in series [9] were 5.83 ×10⁻⁶ cm/s and 6.53 ×10⁻⁶ cm/s, respectively. Also, the Ratio is 2.64 in series [6], 3.35 with MDCK [10], 1.42 in [12] and 1.12 in series [13]. The figures for the efflux ratio at 2 h, 50 µM in series [7] and in [11] were 0.38 and 0.3, respectively.

As to `COc1cccc(/C=C2\CNC/C(=C\c3cccc(OC)c3OC)C2=O)c1OC`, the outcome in the series on Caco-2 was inactive. Also, in the series on MDCK [1], the outcome was Active. Further, the Activity is 4% in the series on MDCK [2] and “Non-toxic” in series [3]. For the same molecule, the Papp A→B at 2 h, 50 µM came out at 23.4 ×10⁻⁶ cm/s in [4] and 14.7 ×10⁻⁶ cm/s in series [8]. Also, the Papp B→A at 2 h, 50 µM came to 7.22 ×10⁻⁶ cm/s in series [5] and 6.28 ×10⁻⁶ cm/s in [9]. The Ratio in series [6] is on record as 3.24; in the series with MDCK [10] it was 2.34; in series [12] it was 0.63; in [13], 0.87. The efflux ratio at 2 h, 50 µM in series [7] was 0.31; in series [11], 0.43.
